Measurements as given in patent publication US20050037294A1, “Stabilized p-phenylenediamine-type photographic color developers in free base form” (priority 2000, published 2005).

Assay: Saturation solubility of color developer free base in solvents and solvent/water mixtures (HPLC and NMR)
Conditions: for CD Free Base Conc. (saturation solubility): ambient temperature, 3% DEHA added; for Solubility in the solvents evaluated (in words): all solvents evaluated, room temperature
Method: Representative solvents were selected from each of the different classes of solvents: alcohols, glycols and glycol ethers. A small quantity of a representative preservative, 3% of N,N-dietheylhydroxylamine (DEHA), was added.

SMILES | CD Free Base Conc. (saturation solubility) (2-Propanol/Water 10:90 (weight:weight)) | CD Free Base Conc. (saturation solubility) (2-Propanol/Water 50:50 (weight:weight)) | CD Free Base Conc. (saturation solubility) (2-Propanol/Water 90:10 (weight:weight)) | Solubility in 2-propanol (in words) (2-propanol) | CD Free Base Conc. (saturation solubility) (Ethanol/Water 10:90 (weight:weight)) | CD Free Base Conc. (saturation solubility) (Ethanol/Water 50:50 (weight:weight)) | CD Free Base Conc. (saturation solubility) (Ethanol/Water 90:10 (weight:weight)) | CD Free Base Conc. (saturation solubility) (Methanol/Water 10:90 (weight:weight)) | CD Free Base Conc. (saturation solubility) (Methanol/Water 50:50 (weight:weight)) | CD Free Base Conc. (saturation solubility) (Methanol/Water 90:10 (weight:weight)) | Solubility in the solvents evaluated (in words) | CD Free Base Conc. (saturation solubility) (solvent 2-Isopropoxyethanol) | CD Free Base Conc. (saturation solubility) (solvent 2-Methyl-1,3-Propanediol) | CD Free Base Conc. (saturation solubility) (solvent 2-Propanol) | CD Free Base Conc. (saturation solubility) (solvent 3-Methoxy-1-Butanol) | CD Free Base Conc. (saturation solubility) (solvent Diethylene Glycol) | CD Free Base Conc. (saturation solubility) (solvent Ethanol) | CD Free Base Conc. (saturation solubility) (solvent Methanol) | CD Free Base Conc. (saturation solubility) (solvent PEG-200) | CD Free Base Conc. (saturation solubility) (solvent PEG-300)
CCN(CCNS(C)(=O)=O)c1ccc(N)c(C)c1 [CD-3 free base, 4-amino-3-methyl-N-ethyl-N-(2-methanesulfonamidoethyl)aniline] | 0.8 weight percent | 9.2 weight percent | 7.8 weight percent | low solubility | 0.6 weight percent | 9.0 weight percent | 9.7 weight percent | 0.7 weight percent | 6.8 weight percent | 18.9 weight percent | lesser solubility | 8.6 weight percent | 3.3 weight percent | 1.8 weight percent | 9.3 weight percent | 15.2 weight percent | 5.4 weight percent | 23.6 weight percent | 16.9 weight percent | 16.7 weight percent
CCN(CC)c1ccc(N)c(C)c1 [CD-2 free base, 4-amino-3-methyl-N,N-diethylaniline] | – | – | – | – | – | – | – | – | – | – | fully miscible | – | – | – | – | – | – | – | – | –
